The source of these data is US20160024597A1, “miRNAs AS THERAPEUTIC TARGETS IN CANCER” (The Research Foundation For The State University Of New York, priority 2009, published 2016).

Bounds are passed on as bounds.

The test system of series [1] is HDAC4 protein. Briefly: HDAC4 protein expression by Western immunoblot after transfection. Format: cell-based, human. As to conditions: U-2 OS (wt-p53) and HCT 116 (wt-p53) cells, 100 nM, 48 h after transfection. How it is done: (§1) Cells were plated in six-well plates at a density of 2×10^5 cells/well. The next day, cells were transfected with 100 nM of miR-140 precursor or non specific miR control (Ambion, Inc.) with Oligofectamine (Invitrogen Inc.) based on the manufacturer's instructions. Positive control siRNA specific against HDAC4 (ON-TARGET plus SMARTpool L-003497-00-0010, human HDAC4, NM 006037) was purchased from Dharmacon and transfected with Oligofectamine according to the manufacturer's protocols at a final concentration of 100 nM.
Forty-eight hours after transfection with miR-140 or miR control, cells were harvested and lysed in 1×RIPA buffer (Sigma) supplied with 100 uM PMSF (sigma) and proteinase inhibitor cocktail (Sigma). Equal amounts of protein were resolved by a 8% SDS-PAGE gels using the method of Laemmli (Laemmli, 1970), and transferred to polyvinylidene fluoride membranes (BIO-RAD Laboratories). The membranes were then blocked by 5% nonfat milk in TBST (Tris-buffered saline and 1% Tween-20) at room temperature for 1 h. The primary antibodies used for the analysis included goat anti-HDAC4 polyclonal Ab (1:1000, N-18), mouse anti-p53 mAb (1:1000, DO-1), mouse anti-p21 mAb(1:1000, F-5), mouse anti-tubulin mAb (1:1000, TU-02), all from Santa Cruz Biotechnology. […]

The test system of series [2] is HDAC4 mRNA. Briefly: HDAC4 mRNA expression by real time qRT-PCR. The format is cell-based, human. As to conditions: U-2 OS (wt-p53) and HCT 116 (wt-p53) cells, 100 nM, 24 hrs, GAPDH normalized. How it is done:
as §1
Total RNA, including miRNAs, was isolated from cell lines or clinical specimens by using TRIzol reagent (Invitrogen, Inc.) according to the manufacturer's instructions to determine whether the cells were transfected with miR control, miR-140 or siHDAC4 at a final concentration of 100 nM for 24 hrs before RNA isolation.
cDNA was synthesized with the High Capacity cDNA synthesis kit (Applied Biosystems) using 2 μg of total RNA as the template and 10× random primers. Real-time qPCR analysis was done on the experimental mRNAs. The PCR primers and probes for HDAC4, and the internal control gene GAPDH were purchased from Applied Biosystems. qRT-PCR was done on an ABI 7500HT instrument under the following conditions: 50° C., 2 min for one cycle; 95° C., 10 min; 95° C., 15 s; 60° C., 1 min for 40 cycles (n=3).

Series [3] relates to p53. Description: p53 expression by Western immunoblot. Format: cell-based. As to conditions: U-2 OS (wt-p53) and HCT 116 (wt-p53) cells, 48 h after transfection. How it is done: (§2) Forty-eight hours after transfection with miR-140 or miR control, cells were harvested and lysed in 1×RIPA buffer (Sigma) supplied with 100 uM PMSF (sigma) and proteinase inhibitor cocktail (Sigma). Equal amounts of protein were resolved by a 8% SDS-PAGE gels using the method of Laemmli (Laemmli, 1970), and transferred to polyvinylidene fluoride membranes (BIO-RAD Laboratories). The membranes were then blocked by 5% nonfat milk in TBST (Tris-buffered saline and 1% Tween-20) at room temperature for 1 h. The primary antibodies used for the analysis included goat anti-HDAC4 polyclonal Ab (1:1000, N-18), mouse anti-p53 mAb (1:1000, DO-1), mouse anti-p21 mAb(1:1000, F-5), mouse anti-tubulin mAb (1:1000, TU-02), all from Santa Cruz Biotechnology. Horseradish peroxidase-conjugated antibodies against mouse or goat (1:1000, Santa Cruz Biotechnology) were used as the secondary antibodies. Protein bands were visualized with a chemiluminescence detection system using Super Signal substrate (Pierce).

Series [4] has as its system HCT 116 (wt-p53) cells. Briefly: Chemosensitivity assay to 5-fluorouracil (WST-1). Format: cell-based, human. As to conditions: 100 nM transfected, 5-FU 2 to 100 μM for 72 h, vs miR control. How it is done: HCT 116 (wt-p53) cells were replated in 96-well plates at 2×10^3 cells per well in triplicate after transfected with miR-140, miR control or siRNA against HDAC4 in 100 μl of medium. After 24 h, 5-FU (ranged from 2 to 100 μM) was added and incubated for 72 h. WST-1 (10 μl) was added to each well. After 1 h incubation, absorbance was measured. Nonspecific miR was used as the negative control.

Series [5] has as its system HCT 116 (wt-p53) cells. Briefly: Chemosensitivity assay to methotrexate (WST-1). The format is cell-based, human. To be noted: 100 nM transfected, methotrexate 10-1000 nM for 72 h, vs miR control. How it is done: U-2 OS and HCT 116 (wt-p53) cells were replated in 96-well plates at 2×10^3 cells/well in triplicate after transfected with miR-140, miR control, or siRNA against HDAC4 in 100 μl of medium. Twenty-four hours later, methotrexate (ranged from 10-1000 nM) was added and incubated for 72 h. Ten μl of WST-1 (Roche Applied Science) was added to each well. After 1 h incubation, absorbance was measured at 450 and 630 nm respectively. Non-specific miRNA was used as the negative control.

Series [6] concerns HCT 116 (null-p53) cells. Description: Cell cycle analysis by flow cytometry. To be noted: 100 nM, 36 h after transfection. Format: cell-based, human. How it is done: (§3) Cells were transfected with miR-140 and miR control described as above. At 36 h after transfection, cells were harvested and resuspended at 0.5-1×10^5 cells/ml in modified Krishan buffer (He, 2007; Tarasov, 2007), containing 0.1% sodium citrate and 0.3% NP-40 and kept at 4° C. Before being analyzed by flow cytometry, cells were treated with 0.02 mg/ml RNase H and stained with 0.05 mg/ml propidium iodide (Sigma).

Series [7] concerns HCT 116 (wt-p53) cells. Description: Cell cycle analysis by flow cytometry. Format: cell-based, human. As to conditions: 100 nM, 36 h after transfection, vs miR control. How it is done:
as §3

For series [8], the system named is MG63 cells (mut-p53). Description: Cell cycle analysis by flow cytometry. Format: cell-based. To be noted: 100 nM, 36 h after transfection. How it is done:
as §3

The test system of series [9] is U-2 OS cells (wt-p53). Description: Cell cycle analysis by flow cytometry. Format: cell-based. To be noted: U-2 OS (wt-p53), 100 nM, 36 h after transfection, vs miR control. How it is done:
as §3

For series [10], the system named is p21. Briefly: p21 expression by Western immunoblot. The format is cell-based. As to conditions: U-2 OS (wt-p53) and HCT 116 (wt-p53) cells, 48 h after transfection. How it is done:
as §2

For series [11], the system named is HCT 116 (null-p53) cells. Description: WST-1 cell proliferation assay after miR-140 transfection. The format is cell-based, human. As to conditions: 100 nM transfected, day 5, n=6. How it is done:
as §1
(§4) Cells were plated in 96-well plates with 6 repeats at 2,000 cells/well after transfection with miR-140 or miR control. Cells were cultured for 24, 48, 72, 96 and 120 h. The absorbance at 450 and 630 nm was measured after incubation with 10 μl of WST-1 for 1 h.

The subject of series [12] is HCT 116 (wt-p53) cells. The description is as above. Format: cell-based, human. As to conditions: 100 nM transfected, day 5, n=6. How it is done: as §1, §4
Series [13] concerns MG63 cells (mut-p53). The series is described as above. The format is cell-based. To be noted: 100 nM transfected, day 5, n=6. How it is done:
as §1, §4

Series [14] relates to U-2 OS cells (wt-p53). Described as above. The format is cell-based. To be noted: U-2 OS (wt-p53), 100 nM transfected, day 5, n=6. How it is done:
as §1, §4

Series [15] relates to nonsorted control HCT 116 (wt-p53) cells. Description: 5-FU cell death assay, FITC Annexin V and PI flow cytometry. As to conditions: lethal dose of 5-FU (100 μM) for 48 h. The format is cell-based, human. How it is done: (§5) Colon cancer stem-like cells were transfected with 100 nM of LNA anti-miR-140 using Lipofectamine 2000 after FACS-sorting. […] The dead cells were determined by the fluorescein isothiocyanate (FITC) Annexin V and PI detection kit (BD Biosciences, Pharmingen, San Diego, Calif., USA). Briefly, cells were harvested and resuspended in 1× Annexin V binding and stained with Annexin V (5 μl) and PI (5 μl) for 15 min at room temperature in the dark. After additional 400 μl of binding buffer, cells were analyzed by flow cytometry. […]

Series [16] concerns CD133+hi/CD44+hi colon cancer stem-like cells. Described as above. Format: cell-based. To be noted: FACS-sorted CD133+hi/CD44+hi cells, lethal dose of 5-FU (100 μM) for 48 h. How it is done: HCT 116 (wt-p53) cells were sorted with multiparametric flow cytometry with BD FACS Aria cell sorter (Becton Dickinson, CA) at sterile conditions. Cells were prepared as described above and labeled with one or several markers conjugated anti-human CD133-PE (clone 105902; R&D Systems, MN); CD44-FITC (clone F10-44-2, R&D Systems, MN). Antibodies were diluted in buffer containing 5% BSA, 1 mM EDTA and 15-20% blocking reagent (Miltenyi Biotec, CA) to inhibit unspecific binding to non-target cells. After 15 min incubation at 4° C., stained cells were washed, resuspended in 500 μl of MACS buffer and sorted.
as §5

Regarding “miR-140: miR-140 precursor (Ambion) transfected at 100 nM to overexpress human miR-140 (SEQ ID NO:1/2) (chain 1 AGUGGUUUUACCUAUGGUAG; chain 2 CAGUGGUUUUACCCUAUGGUAG; listed as RNA, chemistry not given here; listed as Homo sapiens)”, the HDAC4 protein expression entry in series [1] is “clearly decreased”. Moreover, the “HDAC4 mRNA expression” value in [2] is reported as “no change”. Besides, the p53 protein expression result in series [3] is “increased”. Also, in series [4], the “chemosensitivity to 5-fluorouracil of transfected cells” value is listed as “more resistant”. In addition, in series [5], the “chemosensitivity to methotrexate of transfected cells” value is listed as “more resistant”. Also, the “G1 and G2 arrest” value in [6] and in series [8] was “has not been observed” throughout. Besides, the values for the G1 arrest in [7] and in series [9] were 3.33 fold and 1.76 fold, respectively. In addition, the G2 arrest in series [7] is 2.54 fold; in [9] it was 0.92 fold. Further, the p21 protein expression entry in series [10] is “increased”. Moreover, the “suppression of cellular proliferation” value is listed as 22.42±1.88% in [11], 81.4±3.75% in series [12], 31.3±4.96% in [13] and 64.05±4.01% in series [14].
Regarding `O=c1[nH]cc(F)c(=O)[nH]1` [5-FU, 5-fluorouracil], the cell death is over 80% in series [15] and “about 20%” in series [16].
